Experimental data as given in ChEMBL document CHEMBL1201862, “PubChem BioAssay data set” (2004).
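How tested: cells in 96-well plates exposed to compound for 48 hours at five concentrations. At the GI50, growth is halved.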 The source made the active and inactive calls. No stated cut-off is given here; in the data, active = GI50 up to about 1.1 µM and inactive = higher.

How the values were obtained:
Assay in all cases: growth of human tumour cells (NCI), 48 h
T47D = test system: T47D
HCC 2998 = test system: HCC 2998
SN12C = test system: SN12C
NCI-H522 = test system: NCI-H522
ACHN = test system: ACHN
HL-60 = test system: HL-60
DU-145 = test system: DU-145
HCT-116 = test system: HCT-116
UACC-62 = test system: UACC-62
NCI-H460 = test system: NCI-H460
SF-539 = test system: SF-539
HT-29 = test system: HT-29
SK-MEL-2 = test system: SK-MEL-2
SR = test system: SR
SF-268 = test system: SF-268
IGROV-1 = test system: IGROV-1
K562 = test system: K562
OVCAR-5 = test system: OVCAR-5
CCRF-CEM = test system: CCRF-CEM
M19-MEL = test system: M19-MEL

Row | Compound | GI50 (T47D) | GI50 (HCC 2998) | GI50 (SN12C) | GI50 (NCI-H522) | GI50 (ACHN) | GI50 (HL-60) | GI50 (DU-145) | GI50 (HCT-116) | GI50 (UACC-62) | GI50 (NCI-H460) | GI50 (SF-539) | GI50 (HT-29) | GI50 (SK-MEL-2) | GI50 (SR) | GI50 (SF-268) | GI50 (IGROV-1) | GI50 (K562) | GI50 (OVCAR-5) | GI50 (CCRF-CEM) | GI50 (M19-MEL)
1 | COc1cccc(C2c3cc4c(cc3OC(NNC(N)=O)C2C)OCO4)c1O (stereo unspecified) | 61 µM (inactive) | 1.8 µM (inactive) | 2.65 µM (inactive) | 0.871 µM (active) | 3.47 µM (inactive) | 1.05 µM (active) | 4.25 µM (inactive) | 0.834 µM (active) | 2.54 µM (inactive) | 0.951 µM (active) | 0.766 µM (active) | 1.7 µM (inactive) | 0.703 µM (active) | 1.64 µM (inactive) | 3.37 µM (inactive) | 2.58 µM (inactive) | 0.516 µM (active) | 6.12 µM (inactive) | 0.929 µM (active) | 
2 | CN(C)CCn1c(=O)c2ccc(NCCCN(C)CCCNc3ccc4c(=O)n(CCN(C)C)c(=O)n5c6ccccc6c(=O)c3c45)c3c(=O)c4ccccc4n(c1=O)c23 | 0.54 µM (active) | < 0.0115 µM (active) | < 0.01 µM (active) | < 0.01 µM (active) | < 0.01 µM (active) | < 0.01 µM (active) | < 0.01 µM (active) | < 0.01 µM (active) | 0.151 µM (active) | < 0.01 µM (active) | < 0.01 µM (active) | < 0.01 µM (active) | 0.107 µM (active) | < 0.01 µM (active) | 0.258 µM (active) | < 0.01 µM (active) | < 0.01 µM (active) | 0.145 µM (active) | < 0.01 µM (active) | 
3 | CC(=O)C1C(=O)C(=O)N(CCN2C(=O)C(=O)C(C(C)=O)C2=O)C1=O (stereo unspecified) |  | > 100 µM (inactive) | > 100 µM (inactive) | > 100 µM (inactive) | > 100 µM (inactive) |  |  | > 100 µM (inactive) | > 100 µM (inactive) | > 100 µM (inactive) | > 100 µM (inactive) | > 100 µM (inactive) | > 100 µM (inactive) |  | > 100 µM (inactive) | > 100 µM (inactive) | > 100 µM (inactive) | > 100 µM (inactive) |  | > 100 µM (inactive)
4 | COc1ccc(O)c(/C=N/NC(=S)N2CCCCC2)c1 | 6.71 µM (inactive) | 1.87 µM (inactive) | 4.92 µM (inactive) | 0.948 µM (active) | 0.906 µM (active) | 0.131 µM (active) | 1.74 µM (inactive) | 2.3 µM (inactive) | 2.54 µM (inactive) | 1.22 µM (inactive) | 3.77 µM (inactive) | 8.17 µM (inactive) | 25.1 µM (inactive) | 0.425 µM (active) | 0.948 µM (active) | 2.78 µM (inactive) | 3.05 µM (inactive) | 5.9 µM (inactive) | 0.569 µM (active) | 
5 | COc1c(C2=NC(C(C)C)CO2)ccc2ccccc12 (stereo unspecified) |  | 23.7 µM (inactive) | 64.3 µM (inactive) | 28.2 µM (inactive) | 42.6 µM (inactive) | 14.6 µM (inactive) |  |  | 49 µM (inactive) | 9.25 µM (inactive) | 34.8 µM (inactive) | 24.3 µM (inactive) | 65.5 µM (inactive) |  | 29.6 µM (inactive) | 71 µM (inactive) | 15.1 µM (inactive) | 82.8 µM (inactive) | 15.3 µM (inactive) | 55.5 µM (inactive)
6 | COc1cccc(N2C(=O)[C@H]3[C@H]4CC(C(C)(C)C)CC[C@H]4c4c([nH]c5ccccc45)[C@H]3C2=O)c1 (stereo partly specified) |  | 28.4 µM (inactive) | 13.4 µM (inactive) | 19.4 µM (inactive) |  | 28 µM (inactive) |  |  | 14.6 µM (inactive) |  | 23 µM (inactive) | 21.3 µM (inactive) | 20.3 µM (inactive) |  | 27.3 µM (inactive) | 17.1 µM (inactive) | 14 µM (inactive) |  | 13.7 µM (inactive) | 19 µM (inactive)
7 | CC12NC(=C(C#N)C#N)C(C#N)=C3NC(N)=C(C#N)C(=C31)Oc1ccccc12 (stereo unspecified) | > 79.1 µM (inactive) | 27.4 µM (inactive) | > 30.7 µM (inactive) | 56.2 µM (inactive) | > 25 µM (inactive) | 5.74 µM (inactive) | 10.1 µM (inactive) | 4.53 µM (inactive) | 15 µM (inactive) | 31 µM (inactive) | 4.32 µM (inactive) | 7.06 µM (inactive) | 6.7 µM (inactive) | 2.59 µM (inactive) | 10.4 µM (inactive) | 4.01 µM (inactive) | > 43.2 µM (inactive) | 47.8 µM (inactive) | > 29 µM (inactive) | 
8 | Cc1ccc(Nc2nc3c(s2)C(=O)c2ccccc2C3=O)cc1 |  | 2.01 µM (inactive) | 1.92 µM (inactive) | 1.8 µM (inactive) | 1.75 µM (inactive) | 0.229 µM (active) |  |  | 1.87 µM (inactive) | 1.94 µM (inactive) | 5.35 µM (inactive) | 3.18 µM (inactive) | 1.89 µM (inactive) |  | 1.9 µM (inactive) | 1.64 µM (inactive) | 2.29 µM (inactive) | 1.91 µM (inactive) | 1.58 µM (inactive) | 0.324 µM (active)
9 | Cc1nc2ccccc2c(=O)n1/N=C(\N=N\c1cc(Cl)ccc1Cl)c1cccc(-c2ccco2)c1 |  | > 100 µM (inactive) | 88.3 µM (inactive) |  | 73.6 µM (inactive) | > 10 µM (inactive) |  | 53.3 µM (inactive) | 48.1 µM (inactive) | > 100 µM (inactive) | > 100 µM (inactive) | > 100 µM (inactive) | 84.5 µM (inactive) |  | 92 µM (inactive) | 61.4 µM (inactive) | > 10 µM (inactive) | > 100 µM (inactive) | > 10 µM (inactive) | > 100 µM (inactive)
10 | CCOP(=O)(OCC)C(Cc1cn(S(=O)(=O)c2ccc(C)cc2)cn1)C(=O)O (stereo unspecified) | > 100 µM (inactive) | > 100 µM (inactive) | > 100 µM (inactive) | > 100 µM (inactive) | > 100 µM (inactive) | > 100 µM (inactive) | > 100 µM (inactive) | > 100 µM (inactive) | > 100 µM (inactive) | > 100 µM (inactive) | > 100 µM (inactive) | > 100 µM (inactive) | > 100 µM (inactive) | > 100 µM (inactive) | > 100 µM (inactive) | > 100 µM (inactive) | > 100 µM (inactive) | > 100 µM (inactive) | > 100 µM (inactive) | 
11 | CCc1c(OC(C)=O)c2c(NC3OC(COC(C)=O)C(OC(C)=O)C(OC(C)=O)C3OC(C)=O)nc(OC)nc2oc1=O (stereo unspecified) |  | > 100 µM (inactive) | > 100 µM (inactive) |  | > 100 µM (inactive) | > 100 µM (inactive) |  | > 100 µM (inactive) | > 100 µM (inactive) | > 100 µM (inactive) | > 100 µM (inactive) | > 100 µM (inactive) | > 100 µM (inactive) |  |  | > 100 µM (inactive) | > 100 µM (inactive) | > 100 µM (inactive) | > 100 µM (inactive) | > 100 µM (inactive)
12 | O=C(OCc1ccccc1)N(CCCCN(CCCNC(=O)C(F)(F)F)C(=O)OCc1ccccc1)CCCNC(=O)C(F)(F)F | > 100 µM (inactive) | > 100 µM (inactive) | > 100 µM (inactive) | 2.94 µM (inactive) | 23.9 µM (inactive) | > 100 µM (inactive) | > 100 µM (inactive) | > 100 µM (inactive) | > 100 µM (inactive) | > 83.6 µM (inactive) | > 100 µM (inactive) | > 28.4 µM (inactive) | > 100 µM (inactive) | > 100 µM (inactive) | > 100 µM (inactive) | > 100 µM (inactive) | > 100 µM (inactive) | > 100 µM (inactive) | > 100 µM (inactive) | 
13 | c1cnc2nc3n(c2c1)CSC3 |  | > 100 µM (inactive) | > 100 µM (inactive) | > 100 µM (inactive) | > 100 µM (inactive) | > 100 µM (inactive) |  |  | > 100 µM (inactive) | > 100 µM (inactive) | > 100 µM (inactive) | > 100 µM (inactive) | > 100 µM (inactive) |  | > 100 µM (inactive) | > 100 µM (inactive) | > 100 µM (inactive) | > 100 µM (inactive) | > 100 µM (inactive) | > 100 µM (inactive)
14 | O=C(O/C=C\OC1CCCC1(c1ccccc1)c1ccccc1)c1ccccc1 (stereo unspecified) | 1.61 µM (inactive) | 18.7 µM (inactive) | 3.95 µM (inactive) | 19 µM (inactive) | 4.1 µM (inactive) | 1.84 µM (inactive) | 3.02 µM (inactive) | 2.51 µM (inactive) | 6.28 µM (inactive) | 25.9 µM (inactive) | 3.66 µM (inactive) | 3.44 µM (inactive) | 3.31 µM (inactive) | 2.17 µM (inactive) | 4.05 µM (inactive) | 2.6 µM (inactive) | 4.19 µM (inactive) | 16.8 µM (inactive) | 2.04 µM (inactive) | 
15 | Cc1ccccc1-n1c2nc(=O)n(C)c(=O)c-2nc2ccccc21 |  | 10.8 µM (inactive) | 13.3 µM (inactive) | 14.9 µM (inactive) | 8.39 µM (inactive) | 11.1 µM (inactive) |  | 14.6 µM (inactive) | 3.48 µM (inactive) | 9.55 µM (inactive) | 15.2 µM (inactive) | 4.24 µM (inactive) | 15.1 µM (inactive) |  | 12.7 µM (inactive) | 19.2 µM (inactive) | 18.2 µM (inactive) | 20.5 µM (inactive) | 13.3 µM (inactive) | 1.85 µM (inactive)
16 | CN(CC(N)=O)C(=O)N(CCCl)N=O [SARCNU] | > 100 µM (inactive) | > 100 µM (inactive) | > 100 µM (inactive) | > 100 µM (inactive) | > 100 µM (inactive) | > 100 µM (inactive) | > 100 µM (inactive) | > 100 µM (inactive) | > 56.4 µM (inactive) | 41.1 µM (inactive) | 38.3 µM (inactive) | > 100 µM (inactive) | > 100 µM (inactive) | > 71.1 µM (inactive) | 27.2 µM (inactive) | > 100 µM (inactive) | > 100 µM (inactive) | > 100 µM (inactive) | > 81.8 µM (inactive) | 
